Measured values as given in ChEMBL document CHEMBL4028847, “Perspectives of Cannabinoid Type 2 Receptor (CB2R) Ligands in Neurodegenerative Disorders: Structure-Affinity Relationship (SAfiR) and Structure-Activity Relationship (SAR) Studies” (J Med Chem, 2017).

Key:
Cannabinoid receptor 2 [1] = target: T1, Cannabinoid receptor 2 (Homo sapiens, UniProt P34972); experiment: Binding affinity to CB2 receptor (unknown origin)
Cannabinoid receptor 1 [2] = target: T2, Cannabinoid receptor 1 (Homo sapiens, UniProt P21554); experiment: Binding affinity to CB1 receptor (unknown origin)
T2 sequence (P21554 whole entry): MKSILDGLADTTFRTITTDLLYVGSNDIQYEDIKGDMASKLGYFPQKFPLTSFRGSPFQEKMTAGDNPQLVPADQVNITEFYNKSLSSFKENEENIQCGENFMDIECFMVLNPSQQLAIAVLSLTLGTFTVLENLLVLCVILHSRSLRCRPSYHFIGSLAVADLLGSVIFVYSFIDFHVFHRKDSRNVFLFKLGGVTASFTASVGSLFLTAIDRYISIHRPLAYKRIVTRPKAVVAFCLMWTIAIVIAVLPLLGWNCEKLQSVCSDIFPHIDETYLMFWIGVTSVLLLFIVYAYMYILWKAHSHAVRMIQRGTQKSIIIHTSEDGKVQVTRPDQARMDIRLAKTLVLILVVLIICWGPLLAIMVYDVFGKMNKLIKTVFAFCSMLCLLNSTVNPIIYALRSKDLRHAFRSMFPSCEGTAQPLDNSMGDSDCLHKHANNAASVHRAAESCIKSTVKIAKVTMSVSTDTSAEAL

Cannabinoid receptor 1 [3] = target: T2, Cannabinoid receptor 1; experiment: Agonist activity at human CB1 receptor expressed in mouse AtT-20 cells co expressing GIRK by FLIPR assay; assay type: cell-based
Homo sapiens [4] = species: Homo sapiens; experiment: Selectivity index, ratio of EC50 for human CB1 receptor to Ki for human CB2 receptor
Homo sapiens [5] = species: Homo sapiens; experiment: Selectivity index, ratio of Ki for CB1 receptor (unknown origin) to Ki for CB2 receptor (unknown origin)
Cannabinoid receptor 2 [6] = target: T1, Cannabinoid receptor 2; experiment: Agonist activity at human CB2 receptor expressed in mouse AtT-20 cells co expressing GIRK by FLIPR assay; assay type: cell-based
Cannabinoid receptor 2 [7] = target: T1, Cannabinoid receptor 2; experiment: Inhibition of CB2 receptor (unknown origin)
Cannabinoid receptor 2 [8] = target: T1, Cannabinoid receptor 2; experiment: Activity at CB2 receptor (unknown origin)

T1 sequence (P34972 whole entry): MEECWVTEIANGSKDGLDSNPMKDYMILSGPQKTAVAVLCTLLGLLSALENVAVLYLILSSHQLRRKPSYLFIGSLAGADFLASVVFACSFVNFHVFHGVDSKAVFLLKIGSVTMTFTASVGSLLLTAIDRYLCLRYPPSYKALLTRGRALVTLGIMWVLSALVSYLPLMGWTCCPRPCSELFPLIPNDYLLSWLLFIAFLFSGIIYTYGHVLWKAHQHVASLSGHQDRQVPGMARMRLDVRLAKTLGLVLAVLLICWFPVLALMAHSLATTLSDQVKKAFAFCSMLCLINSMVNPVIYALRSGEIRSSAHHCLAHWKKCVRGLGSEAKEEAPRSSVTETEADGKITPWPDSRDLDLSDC

`CCCc1sc(NC(=O)C23CC4CC(CC(C4)C2)C3)c(C(=O)O[11CH3])c1C` gave a Ki (Cannabinoid receptor 2 [1]) of 4.3 nM and a Ki (Cannabinoid receptor 1 [2]) of 1100 nM.

`CCCCCn1nc(C(=O)N[C@H](C(N)=O)C(C)C)c2ccccc21` gave an EC50 (Cannabinoid receptor 1 [3]) of 2.1 to 7.8 nM and a Ratio EC50 (Homo sapiens [4]) of 1.5 to 3.2.

In the case of `COc1cccc2c(=O)c(C(=O)NC34CC5CC(CC(C5)C3)C4)cn(CCOCC[18F])c12`, the Ki (Cannabinoid receptor 2 [1]) is reported as 1.2 nM and the Ki (Cannabinoid receptor 1 [2]) is reported as greater than 10000 nM.

`CCCc1sc(NC(=O)C23CC4CC(CC(C4)C2)C3)c(C(=O)OC)c1C` was tested, and the Ratio Ki (Homo sapiens [5]; tested as the 11C-labelled form) was 256.

`CC(C)[C@H](NC(=O)c1nn(CC2CCCCC2)c2ccccc12)C(N)=O` gave an EC50 (Cannabinoid receptor 1 [3]) of 2.1 to 7.8 nM and a Ratio EC50 (Homo sapiens [4]) of 1.5 to 3.2.

In the case of `CC(C)[C@H](NC(=O)c1nn(Cc2ccc(F)cc2)c2ccccc12)C(N)=O`, the EC50 (Cannabinoid receptor 1 [3]) is reported as 2.1 to 7.8 nM.

In the case of `CCCCn1cc(C(=O)c2ccccc2OC)c2ccccc21`, the EC50 (Cannabinoid receptor 1 [3]) is reported as 178 nM, the Selectivity Index (Homo sapiens [4]) is reported as 39.6 and the EC50 (Cannabinoid receptor 2 [6]) is reported as 4.5 nM.

In the case of `CC(C)[C@H](NC(=O)c1nn(CCCCCF)c2ccccc12)C(N)=O`, the EC50 (Cannabinoid receptor 1 [3]) is reported as 2.1 to 7.8 nM and the Ratio EC50 (Homo sapiens [4]) is reported as 1.5 to 3.2.

In the case of `CCOCCn1cc(C(=O)NC23CC4CC(CC(C4)C2)C3)c(=O)c2cccc(O[11CH3])c21`, the Ki (Cannabinoid receptor 1 [2]) is reported as greater than 10000 nM.

Work on `CCCCCn1cc(C(=O)c2ccccc2OC)c2ccccc21` yielded an EC50 (Cannabinoid receptor 1 [3]) of 54 nM, a Selectivity Index (Homo sapiens [4]) of 7.8 and an EC50 (Cannabinoid receptor 2 [6]) of 6.9 nM.

Work on `[2H]C([2H])([18F])Oc1nc(NCCc2ccc(F)cc2)nc(-c2ccc(Cl)c(C(C)(C)O)c2)n1` yielded an IC50 (Cannabinoid receptor 2 [7]) of 1.4 nM.

`CCOc1nc(NC2CCCC2)nc(N2CCN(CC[18F])CC2)n1` was tested, and the EC50 (Cannabinoid receptor 2 [8]) was 40 nM.

Work on `COc1cccc2c(=O)c(C(=O)NC34CC5CC(CC(C5)C3)C4)cn(CCOCCF)c12` yielded a Ratio Ki (Homo sapiens [5]; tested as the 18F-labelled form) greater than 8330.
